# Laboratory results from paper PMC10606834, “Is the Neuropeptide PEN a Ligand of GPR83?” (International Journal of Molecular Sciences, 2023).
# Legend:
# [1] = tested on: GPR83 and GPR83del, with or without HA tag (HEK293 cells; wild-type HEK293 as comparison); assay: Competitive radioligand binding assay, GPR83; design: species or system human
# Description: One of the most proven methods for quantitatively analyzing the interaction of biomolecules is the competitive radioligand binding assay. […] To safeguard against possible interference of the added Tyr with ligand–receptor binding, two peptides were created and are as follows: one with the Tyr on the aminoterminal end (Tyr-PEN), and the other with Tyr added on the carboxyterminus (PEN-Tyr). Radiolabeled ^125I-PEN-Tyr and ^125I-Tyr-PEN were then used on wild-type HEK293 cells and HEK293 cells expressing various forms of GPR83 (full-length or deletion variant, with or without HA tag) in competition with different concentrations of natural PEN or Tyr-PEN, ranging from 1 pM to 1 µM.
# Figure 5 HEK293 wild-type cells and HEK293 cells overexpressing various forms of GPR83 were used in radioligand binding assays with two different radioactively labeled PEN peptides: [^125I]-Tyr-PEN or [^125I]-PEN-Tyr. (A) Radioligand [^125I]-PEN-Tyr in competition with unlabeled wild-type PEN. (B) Radioligand [^125I]-Tyr-PEN in competition with unlabeled wild-type PEN. (C) Radioligand [^125I]-PEN-Tyr in competition with unlabeled wild-type PEN. (D) Radioligand [^125I]-Tyr-PEN in competition with Tyr-PEN. […]
# Two variants of human PENs were utilized for radioiodination in this study: one with a tyrosine added at the aminoterminal end (Tyr-PEN: […]-NH2), and one with an additional tyrosine attached to the carboxyterminal end (PEN-Tyr: […]-NH2). Both were labelled with ^125I using the chloramine-T method. Chloramine-T and sodium metabisulfite solutions were freshly prepared in water. For labelling, 10 µL of peptide (stock 1 mM) with 15 µL of sodium phosphate buffer (0.5 M, pH 7.6) was mixed with 37 MBq carrier-free Na^125I (NEZ033L010MC, Perkin Elmer, Waltham, MA, USA). A 4 μL volume of chloramine T (1 mg/mL) was added to start the reaction, and after 30 s, 4 μL sodium metabisulfite (2 mg/mL) was added to stop the iodination. The labeled radioactive peptide was separated from unlabeled peptide with HPLC purification (Agilent ZORBAX 300 Extend-C18 column) using a gradient from 20–50% acetonitrile (+0.1% TFA) against water (+0.1% TFA) for 20 min. To determine the retention time of the radioactive peptide, 1–2 µL of the reaction mixture was analyzed before the purification run. The fraction containing the radiolabeled peptide peak was then collected, diluted with binding buffer to prevent radioautolysis, aliquoted, and stored at −80 °C.
# 4.10. Radioligand Binding Assay
# For competitive radioligand binding assay, approximately 50,000 cells/well were seeded in a 96-well plate incubated overnight at 37 °C. Next day, cells were incubated in binding buffer (50 mM HEPES pH 7.4, 5 mM MgCl2, 1 mM CaCl2, 0.5% BSA, cOmplete protease inhibitors) containing 100,000 counts per minute of ^125I-labelled peptide, with increasing concentrations of unlabeled peptide. After 2 h of incubation, cells were washed for 2–3 times with ice-cold washing buffer (50 mM Tris-HCl, pH 7.4, 125 mM NaCl, 0.05% BSA) and lysed with 1 N NaOH (80 µL/well). The lysed cells were transferred to vials and measured in a gamma counter (Wallac 1470 Wizard, Perkin Elmer, Waltham, MA, USA). Obtained cpm values were plotted with GraphPad Prism 7, and the data were fitted using nonlinear regression (one site—fit Ki, one site—fit logIC50).
# [2] = tested on: GPR83 with chimeric Gα16/i3 protein (CHO cells); details: CHO cells transfected with GPR83 and chimeric Gα16/i3 protein; ref [10]; cited from earlier work
# Description: In the present study, evidence for a molecular interaction of the neuropeptide PEN with the cell surface receptor GPR83 could not be found.
sequence,measurement,setting,value
"AADHDVGSELPPEGVLGALLRV [PEN, batch #1 synthesized, batch #2 purchased from Phoenix Pharmaceuticals]",concentration-dependent displacement of radioligand,"[1]; unlabeled peptide 1 pM to 1 µM versus 125I-PEN-Tyr or 125I-Tyr-PEN, HEK293 wild-type and GPR83 / GPR83del with or without HA tag, pH 7.4, 2 h",neither of these different assay conditions led to a PEN-GPR83 binding signal above background or a concentration-dependent displacement of the radioligand
same,interaction with GPR83 in radioligand binding assay,"[1]; up to four GPR83-overexpressing cell clones, two radiolabeled PEN variants, whole cells",no interaction could be detected between PEN and GPR83
same,intracellular Ca2+ mobilization,[2],PEN-induced intracellular Ca^2+ mobilization
